From ChEMBL document CHEMBL3885861, “Open TG-GATES”

Organism: Rattus norvegicus
Experiment: Open TG-GATES - Regimen: Daily Repeat
Format: toxicity, organism-based, Sprague-Dawley
Design: regimen Daily Repeat, gender Male, age 6 weeks
Conditions: in vivo, po, route gavage; for TP / gamma-GTP / ALP / ALT / AST / CRE / Ca / Cl / DBIL / GLC / IP / K / LDH / RALB / TBIL / TC / TG: tissue Plasma; for APTT / Bas / Eos / Fbg / Ht / Lym / MCH / MCHC / MCV / Mono / PT / Plat / RBC / Ret / WBC / Neu: tissue Blood; for KIDNEY_L / KIDNEY_R / KIDNEY_TOTAL: tissue Kidney
[1] = 10 mg/kg, […], dose level Low, time 28 day
[2] = 30 mg/kg, 72 h, dose level Middle, time 3 day
[3] = 30 mg/kg, […], dose level Middle, time 7 day
[4] = 30 mg/kg, […], dose level Middle, time 14 day
[5] = 30 mg/kg, […], dose level Middle, time 28 day
[6] = 100 mg/kg, 72 h, dose level High, time 3 day
[7] = 100 mg/kg, […], dose level High, time 7 day
[8] = 100 mg/kg, […], dose level High, time 14 day
[9] = 100 mg/kg, […], dose level High, time 28 day

## Cn1c(=O)c2c(ncn2C)n(C)c1=O [CAFFEINE]
[1]
  TP: 6 g/dL
  gamma-GTP: 2.4 IU/L
[2]
  TERMINAL_BW: 223.8 g
  APTT: 20.9 s
  Bas: 0%
  Eos: 0.8%
  Fbg: 330 mg/dL
  Ht: 41.1%
  Lym: 84%
  MCH: 21.2 pg
  MCHC: 33.4%
  MCV: 63.6 fL
  Mono: 1.2%
  PT: 15.5 s
  Plat: 114.5 x10_4/uL
  RBC: 646.4 x10_4/ul
  Ret: 5.2%
  WBC: 61.4 x10_2/uL
  KIDNEY_L: 1 g
  KIDNEY_R: 1 g
  KIDNEY_TOTAL: 2 g
  ALP: 1647.8 IU/L
  ALT: 40 IU/L
  AST: 67.4 IU/L
  CRE: 0.2 mg/dL
  Ca: 10.7 mg/dL
  Cl: 108.8 meq/L
  DBIL: 0 mg/dL
  GLC: 179.6 mg/dL
  IP: 8.1 mg/dL
  K: 4.4 meq/L
  LDH: 140.2 IU/L
  RALB: 3.1 g/dL
  TBIL: 0.004 mg/dL
  TC: 73.8 mg/dL
  TG: 87.6 mg/dL
  TP: 5.6 g/dL
  gamma-GTP: 1.2 IU/L
[3]
  TERMINAL_BW: 245.2 g
  APTT: 23.2 s
  Bas: 0%
  Eos: 0.8%
  Fbg: 310.2 mg/dL
  Lym: 80.8%
  MCHC: 33.6%
  MCV: 60.9 fL
  Mono: 1.4%
  Neu: 16%
  PT: 15.2 s
  Plat: 115.9 x10_4/uL
  RBC: 687.8 x10_4/ul
  Ret: 5.4%
  WBC: 79 x10_2/uL
  KIDNEY_L: 1 g
  KIDNEY_R: 1 g
  KIDNEY_TOTAL: 2.1 g
  ALP: 1455 IU/L
  ALT: 45.6 IU/L
  AST: 75.6 IU/L
  CRE: 0.1 mg/dL
  Ca: 10.4 mg/dL
  Cl: 106.4 meq/L
  DBIL: 0 mg/dL
  GLC: 182.4 mg/dL
  IP: 7.7 mg/dL
  K: 4.1 meq/L
  LDH: 158.8 IU/L
  RALB: 3.1 g/dL
  TBIL: 0.01 mg/dL
  TC: 74.6 mg/dL
  TG: 79.8 mg/dL
  TP: 5.7 g/dL
  gamma-GTP: 1.6 IU/L
[4]
  TERMINAL_BW: 286.3 g
  APTT: 23.9 s
  Bas: 0%
  Eos: 1%
  Fbg: 309 mg/dL
  Ht: 43.4%
  Lym: 76.2%
  MCH: 19.7 pg
  MCHC: 33.7%
  MCV: 58.4 fL
  Mono: 2%
  Neu: 20%
  PT: 15.2 s
  Plat: 109.9 x10_4/uL
  RBC: 743.8 x10_4/ul
  Ret: 3.9%
  WBC: 108 x10_2/uL
  KIDNEY_L: 1.1 g
  KIDNEY_R: 1.2 g
  KIDNEY_TOTAL: 2.3 g
  ALP: 1460.4 IU/L
  ALT: 47.6 IU/L
  AST: 75.6 IU/L
  CRE: 0.2 mg/dL
  Ca: 10.4 mg/dL
  Cl: 106.6 meq/L
  DBIL: 0 mg/dL
  GLC: 196 mg/dL
  IP: 7 mg/dL
  K: 4.2 meq/L
  LDH: 145.8 IU/L
  RALB: 3 g/dL
  TBIL: 0.002 mg/dL
  TC: 73.2 mg/dL
  TG: 139.6 mg/dL
  TP: 5.9 g/dL
  gamma-GTP: 2.4 IU/L
[5]
  TERMINAL_BW: 380.2 g
  Bas: 0%
  Eos: 1%
  Fbg: 315.2 mg/dL
  Ht: 43.1%
  Lym: 79.6%
  MCH: 19.4 pg
  MCHC: 35%
  MCV: 55.4 fL
  Mono: 2.4%
  PT: 15.5 s
  Plat: 100.3 x10_4/uL
  RBC: 778.6 x10_4/ul
  Ret: 2.7%
  WBC: 99.4 x10_2/uL
  KIDNEY_L: 1.5 g
  KIDNEY_R: 1.5 g
  KIDNEY_TOTAL: 3 g
  ALP: 1003 IU/L
  ALT: 44.8 IU/L
  AST: 71.8 IU/L
  CRE: 0.2 mg/dL
  Ca: 10.7 mg/dL
  Cl: 105.2 meq/L
  DBIL: 0 mg/dL
  GLC: 189.6 mg/dL
  IP: 7.6 mg/dL
  K: 3.9 meq/L
  LDH: 126.6 IU/L
  RALB: 3.2 g/dL
  TBIL: 0.01 mg/dL
  TC: 85.8 mg/dL
  TG: 88.6 mg/dL
  TP: 6.1 g/dL
  gamma-GTP: 2 IU/L
[6]
  TERMINAL_BW: 205.8 g
  APTT: 22.4 s
  Bas: 0%
  Eos: 1%
  Fbg: 319.6 mg/dL
  Lym: 74.4%
  MCHC: 33.8%
  MCV: 60.6 fL
  Mono: 1.6%
  Neu: 22.4%
  PT: 15.8 s
  Plat: 126.2 x10_4/uL
  RBC: 686 x10_4/ul
  Ret: 4.3%
  WBC: 81.5 x10_2/uL
  KIDNEY_L: 0.9 g
  KIDNEY_R: 0.9 g
  KIDNEY_TOTAL: 1.8 g
  ALT: 38 IU/L
  AST: 70.2 IU/L
  CRE: 0.2 mg/dL
  Ca: 10.8 mg/dL
  Cl: 108.6 meq/L
  DBIL: 0 mg/dL
  GLC: 169.6 mg/dL
  IP: 8.9 mg/dL
  K: 4.4 meq/L
  LDH: 159.6 IU/L
  RALB: 3.2 g/dL
  TBIL: 0.018 mg/dL
  TG: 43 mg/dL
  TP: 5.8 g/dL
  gamma-GTP: 1 IU/L
[7]
  TERMINAL_BW: 226.6 g
  APTT: 22.8 s
  Bas: 0%
  Eos: 1%
  Fbg: 321.8 mg/dL
  Lym: 80.8%
  MCHC: 34%
  MCV: 60.4 fL
  Mono: 2%
  Neu: 15.2%
  PT: 15.3 s
  Plat: 109.2 x10_4/uL
  RBC: 705.4 x10_4/ul
  Ret: 4.8%
  WBC: 100.2 x10_2/uL
  KIDNEY_L: 1 g
  KIDNEY_R: 1 g
  KIDNEY_TOTAL: 2 g
  ALP: 1284.2 IU/L
  ALT: 41.2 IU/L
  AST: 74.6 IU/L
  CRE: 0.1 mg/dL
  Ca: 10.4 mg/dL
  Cl: 106.2 meq/L
  DBIL: 0 mg/dL
  GLC: 182.8 mg/dL
  IP: 8.5 mg/dL
  K: 4.2 meq/L
  LDH: 175.6 IU/L
  RALB: 3 g/dL
  TBIL: 0.016 mg/dL
  TC: 84 mg/dL
  TG: 77.4 mg/dL
  TP: 5.7 g/dL
  gamma-GTP: 1.6 IU/L
[8]
  TERMINAL_BW: 270 g
  APTT: 24.3 s
  Bas: 0%
  Eos: 0.4%
  Fbg: 320.6 mg/dL
  Ht: 44.2%
  Lym: 80%
  MCH: 20.1 pg
  MCV: 58.9 fL
  Mono: 2%
  Neu: 16.6%
  PT: 15.5 s
  Plat: 110.4 x10_4/uL
  RBC: 750.4 x10_4/ul
  Ret: 3.5%
  WBC: 105.7 x10_2/uL
  KIDNEY_L: 1.2 g
  KIDNEY_R: 1.2 g
  KIDNEY_TOTAL: 2.4 g
  ALP: 1222.6 IU/L
  ALT: 46.8 IU/L
  AST: 80.6 IU/L
  CRE: 0.2 mg/dL
  Ca: 10.6 mg/dL
  Cl: 105.8 meq/L
  DBIL: 0 mg/dL
  GLC: 184.8 mg/dL
  IP: 8 mg/dL
  K: 4.2 meq/L
  LDH: 140.2 IU/L
  RALB: 3.1 g/dL
  TBIL: 0.022 mg/dL
  TC: 80.4 mg/dL
  TG: 83.4 mg/dL
  TP: 5.8 g/dL
  gamma-GTP: 2 IU/L
[9]
  TERMINAL_BW: 302.8 g
  APTT: 23.7 s
  Bas: 0%
  Eos: 1%
  Fbg: 308.2 mg/dL
  Lym: 75.6%
  MCH: 19.1 pg
  MCHC: 34.9%
  MCV: 54.8 fL
  Mono: 2.8%
  Neu: 18.8%
  PT: 15.9 s
  Plat: 97.1 x10_4/uL
  RBC: 829 x10_4/ul
  Ret: 2.1%
  WBC: 98.3 x10_2/uL
  KIDNEY_L: 1.2 g
  KIDNEY_R: 1.2 g
  KIDNEY_TOTAL: 2.5 g
  ALP: 1068.4 IU/L
  ALT: 53.8 IU/L
  AST: 85.4 IU/L
  CRE: 0.2 mg/dL
  Ca: 10.4 mg/dL
  Cl: 106.2 meq/L
  DBIL: 0 mg/dL
  GLC: 180.8 mg/dL
  IP: 7.8 mg/dL
  K: 4.2 meq/L
  LDH: 163 IU/L
  RALB: 3.2 g/dL
  TBIL: 0.034 mg/dL
  TC: 80.2 mg/dL
  TG: 77 mg/dL
  TP: 6 g/dL
  gamma-GTP: 2.6 IU/L
